In US10174015B2, “Substituted heterocyclic derivative, preparation method and use thereof” (Xiamen University, priority 2014, dated 2019):
Read-outs that look alike come from different tables or passages of the source. Marks after values point to notes of the source that are not given here.

Key:
[1] = system: headache caused by nitroglycerin; experiment: Nitroglycerin-induced headache rat model; assay type: in vivo, Wistar rats; conditions: rats, 10 mg/kg i.p. 1 h before nitroglycerin (FIG. 5)
Protocol: In the Experimental example, compounds to be evaluated or compounds to be tested or test compounds used are the Compounds 1-46 prepared in the Examples according to the invention. In the Experimental example, all the agents for injection, including compounds to be evaluated or compounds to be tested or test compounds, and positive control drug, were dissolved in a mixed solvent of PEG400:Tween 80:normal saline (at a volume ratio of 5:5:90), at a concentration of 5 mg/mL.
Nitroglycerin-induced headache rat model was a common model for studying inflammatory pain medically. The model was used in the invention to evaluate the therapeutic effects of the compounds on headache. The model can represent mixed pain including, but not only limited to: migraine, cluster headache, tension headache syndrome, prosopodynia, lumbodynia, shoulder pain, burning mouth syndrome, and complex regional pain syndrome.
Experimental Wistar rats with a body weight of about 250 g for each (purchased from Shanghai SLAC Laboratory Animal Co., Ltd) were in an experimental environment with free access to food and water for 1 week. The rats were fasted for 24 h before administration. The compound to be evaluated (10 mg/kg) was intraperitoneally injected to the rat at 1 h before the administration of nitroglycerin, wherein the positive control drug was indomethacin and the blank control was normal saline. Nitroglycerin (10 mg/kg, nitroglycerin dissolved in normal saline, at a concentration of 5%) was injected at epidermis of the rat neck, and the rats were then placed in the observation cage. A video camera was used to record the behavior of the rats in the following 60 min. Pain-related behavior was analyzed statistically based on the times that the rat scratched its head in said period.

zebrafish embryos = assay type: in vivo; conditions: for Death number (72 h): n = 30; for observation of zebrafish embryo development: 48 h; for Body length (72 h) / Hatching number (72 h) / Heartbeat (72 h) / Unhatching number (72 h) / hatching rate: zebrafish, in vivo, 72 h
Protocol: By the same method described above, zebrafish fertilized eggs were cultured. 7 Groups were set for each test compound, including 5 experimental groups relating to the test compound at different concentrations (solutions containing the test compound at different concentrations were prepared by using zebrafish embryo culture medium, wherein the concentrations were 100 mg/L, 10 mg/L, 1 mg/L, 0.1 mg/L, 0.01 mg/L), 1 solvent control group (DMSO) and 1 blank control group. The fertilized eggs were placed and cultured in a 28.5° C. incubator, a certain humidity was ensured in the culture environment. Culture medium containing a test compound was prepared, and the culture medium was added to a 96-well plate in advance, and each fertilized egg (by reference to the experimental method in OECD No. 212 document, fertilized eggs, which developed normally within 24 h after fertilization, were selected and subjected to exposure. Transparent fish eggs visible to naked eye were normally fertilized, while white fish eggs were dead and discarded. After the selection, the normally fertilized eggs had begun to divide as observed under microscope) was then independently placed in a different well, and cultured in the culture medium containing a test compound at a different concentration. Embryo development status at different stages were observed and photographed with invert microscope, including:
I. Morphological observation: the developmental states of fertilized eggs (yolk being coagulated or not, eye spot, pericardial sac being edematous or not, bloodstream being existing or not, tail development status, and the like) were observed and photographed at 48 h, 72 h, and 96 h;
II. Hatching number and death number were counted at 72 h after fertilization, and hatching rate and mortality were calculated;
III. Body length of the hatched young fishes at 72 h was measured (measured after photographing with invert microscope); […]
V. Heartbeat of young fishes (times/min) was recorded at 72 h and 96 h after fertilization (Recording method: heartbeat of young fishes could be clearly observed under microscope, and the number of heartbeats was recorded for 30 s).

[2] = system: adjuvant-induced arthritis rat models; experiment: Adjuvant-induced osteoarthritis pain, foot swelling degree; assay type: in vivo, rats; conditions: 10 mg/Kg; for Foot swelling degree after inflammation: X ± S, n = 10; for effect of inhibiting osteoarthritis pain: rats, indometacin 10 mg/Kg
Protocol: Typical model for studying inflammatory pain medically was used to evaluate the therapeutic effects of compounds on inflammatory pain. 0.1 mL Freund's complete adjuvant was intradermally injected to toe of the left hind foot of the rats in each group to obtain adjuvant-induced arthritis rat models. Foot volume method was used to measure primary and secondary foot swelling degree (swelling degree=volume after inflammation−volume before inflammation), and polyarticular arthritis were scored (5 scoring grades: 0 represents no red swelling; 4 represents red swelling at all the paws including anklebone. The scores are accumulated according to the lesion degree of the rest three limbs not injected with adjuvant, and the highest score is 12). Before inflammation and at 6 h, 12 h, 18 h and 24 h after inflammation, Paw Volume Meter was used to measure the foot volume at the inflammatory side, and the swelling degree was calculated. The model can represent inflammatory pain including, but not only limited to: osteoarthritis pain and fibromyalgia syndrome, inflammatory pain of rheumatic and rheumatoid arthritis, inflammatory pain of endometriosis, inflammatory toothache, ankylosing spondylitis pain, and gouty arthritis pain.

[3] = Stability assays at acidic and basic conditions; assay type: physicochemical
Protocol: The sample containing the compound to be tested was then incubated in a constant temperature shaker at 37° C. At different time points (0 min, 10 min, 30 min, 1 h, 2 h, 4 h, 6 h, 12 h, 24 h), 50 μL sample was taken and added to 150 μL precooled methanol (containing the internal standard E8, 1 nmol/sample), wherein three parallel samples were prepared for each time point. The samples were then vertically mixed well, and transferred to a sample vial. LC-MS/MS was used to measure the peak area at different time points, Analyst® version 1.4.1. software was used to analyze chromatographic peak, and the content of the target compound was calculated based on the standard curve.

[4] = PBS pH 5.0, 37° C., read-out: Half-life pH 5.0
[5] = PBS pH 7.4, 37° C., read-out: Half-life pH 7.4

| SMILES | effect of inhibiting nitroglycerin-induced headache [1] | Death number (72 h) (zebrafish embryos; 0.01 mg/L) | Death number (72 h) (zebrafish embryos; 0.1 mg/L) | Death number (72 h) (zebrafish embryos; 1 mg/L) | Death number (72 h) (zebrafish embryos; 10 mg/L) | observation of zebrafish embryo development (zebrafish embryos; 100 mg/L) | Death number (72 h) (zebrafish embryos; 100 mg/L) | Body length (72 h) (zebrafish embryos; 0.01 mg/L) [mm] | Hatching number (72 h) (zebrafish embryos; 0.01 mg/L) | Heartbeat (72 h) (zebrafish embryos; 0.01 mg/L) [per min] | Unhatching number (72 h) (zebrafish embryos; 0.01 mg/L) | Body length (72 h) (zebrafish embryos; 0.1 mg/L) [mm] | Hatching number (72 h) (zebrafish embryos; 0.1 mg/L) | Heartbeat (72 h) (zebrafish embryos; 0.1 mg/L) [per min] | Unhatching number (72 h) (zebrafish embryos; 0.1 mg/L) | Body length (72 h) (zebrafish embryos; 1 mg/L) [mm] | Hatching number (72 h) (zebrafish embryos; 1 mg/L) | Heartbeat (72 h) (zebrafish embryos; 1 mg/L) [per min] | Unhatching number (72 h) (zebrafish embryos; 1 mg/L) | Body length (72 h) (zebrafish embryos; 10 mg/L) [mm] | further results |
| --- | --- | --- | --- | --- | --- | --- | --- | --- | --- | --- | --- | --- | --- | --- | --- | --- | --- | --- | --- | --- | --- |
| O=C(CCCCCc1ccccc1)N1CCOC1=O [Compound 2, Phenylhexanoyl Oxazolidinone] | significant effects of inhibiting nitroglycerin-induced headache in rats | 0 | 0 | 0 | 0 | no zebrafish embryos died, but phenomena such as pericardial cyst, no heartbeat, no bloodstream, no tail development and the like occurred in embryos | 30 | 3.90 ± 0.93 | 30 | 124 ± 1.67 | 0 | 4.08 ± 0.09 | 30 | 123 ± 2.45 | 0 | 3.92 ± 0.10 | 30 | 123 ± 3.03 | 0 | 3.78 ± 0.05 | Hatching number (72 h) (zebrafish embryos; 10 mg/L): 28; Heartbeat (72 h) (zebrafish embryos; 10 mg/L): 117 ± 3.90 per min; Unhatching number (72 h) (zebrafish embryos; 10 mg/L): 2; hatching rate (zebrafish embryos; 10 mg/L): 93.3%; Hatching number (72 h) (zebrafish embryos; 100 mg/L): 0; Unhatching number (72 h) (zebrafish embryos; 100 mg/L): 30; Foot swelling degree after inflammation ([2]; 6 h): 0.35 ± 0.07^c mL; Foot swelling degree after inflammation ([2]; 12 h): 0.65 ± 0.13^c mL; Foot swelling degree after inflammation ([2]; 18 h): 1.06 ± 0.14^c mL; Foot swelling degree after inflammation ([2]; 24 h): 0.89 ± 0.21^c mL; effect of inhibiting osteoarthritis pain [2]: significant effects of inhibiting osteoarthritis pain; half-life at 1 μM [3, 4]: > 24 h; half-life at 1 μM [3, 5]: > 24 h |
| O=C(CCCCCc1cccc(Cl)c1)N1CCOC1=O [Compound 9, 3-Chlorophenylhexanoyl Oxazolidinone] | significant effects of inhibiting nitroglycerin-induced headache in rats | 0 | 0 | 0 | 0 | no zebrafish embryos died, but phenomena such as pericardial cyst, no heartbeat, no bloodstream, no tail development and the like occurred in embryos | 30 | 4.01 ± 0.24 | 30 | 124 ± 0.27 | 0 | 4.03 ± 0.62 | 30 | 124 ± 1.17 | 0 | 4.01 ± 0.26 | 30 | 124 ± 1.08 | 0 | 3.82 ± 0.44 | Hatching number (72 h) (zebrafish embryos; 10 mg/L): 28; Heartbeat (72 h) (zebrafish embryos; 10 mg/L): 117 ± 2.24 per min; Unhatching number (72 h) (zebrafish embryos; 10 mg/L): 2; hatching rate (zebrafish embryos; 10 mg/L): 93.3%; Hatching number (72 h) (zebrafish embryos; 100 mg/L): 0; Unhatching number (72 h) (zebrafish embryos; 100 mg/L): 30; Foot swelling degree after inflammation ([2]; 6 h): 0.44 ± 0.09^c mL; Foot swelling degree after inflammation ([2]; 12 h): 0.75 ± 0.24^c mL; Foot swelling degree after inflammation ([2]; 18 h): 1.24 ± 0.24^b mL; Foot swelling degree after inflammation ([2]; 24 h): 1.06 ± 0.18^c mL; effect of inhibiting osteoarthritis pain [2]: significant effects of inhibiting osteoarthritis pain; half-life at 1 μM [3, 4]: > 24 h; half-life at 1 μM [3, 5]: > 24 h |
